Where a SMILES comes first, the peptide text is derived from it. Bridges are numbered along the chain shown (N, C = ends). [ ]: non-standard residue; d: D form. The star is where a group is joined. ξ: configuration not given here. Phe(4-COOH) = N[C@@H](Cc1ccc(C(=O)O)cc1)C(=O)O; Bip = N[C@@H](Cc1ccc(-c2ccccc2)cc1)C(=O)O; Phe(4-CN) = N#Cc1ccc(C[C@H](N)C(=O)O)cc1; Phe(3-F) = N[C@@H](Cc1cccc(F)c1)C(=O)O; Phe(3-Me) = Cc1cccc(C[C@H](N)C(=O)O)c1; Val(3-OH) = CC(C)(O)[C@H](N)C(=O)O; Cha = N[C@@H](CC1CCCCC1)C(=O)O; Cit = NC(=O)NCCC[C@H](N)C(=O)O; Ile(3ξ) = CCC(C)[C@H](N)C(=O)O; Thr(3ξ) = CC(O)[C@H](N)C(=O)O; Carboxymethyl = O=C(O)C*; NMeA = CN[C@@H](C)C(=O)O; Aun = NCCCCCCCCCCC(=O)O; Dab = NCC[C@H](N)C(=O)O; AEEA = NCCOCCOCC(=O)O

T1 sequence (Q15116 25-288): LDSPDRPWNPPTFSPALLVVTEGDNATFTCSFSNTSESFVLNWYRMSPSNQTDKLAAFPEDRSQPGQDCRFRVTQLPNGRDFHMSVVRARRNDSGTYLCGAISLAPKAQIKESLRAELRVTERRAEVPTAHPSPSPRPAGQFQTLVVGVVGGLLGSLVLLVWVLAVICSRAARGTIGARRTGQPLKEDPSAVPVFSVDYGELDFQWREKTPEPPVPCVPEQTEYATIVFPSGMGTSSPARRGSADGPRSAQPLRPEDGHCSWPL

The assay concerns the target T1, PD-1/PD-L1 interaction (PE-labeled human PD-L1-Ig binding to Jurkat cell line over-expressing human PD-1) (Homo sapiens, UniProt Q15116).
T1 construct: expressed in transfected cells; host or cells: Jurkat
The assay is described as follows: Jurkat-PD-1 Cell Binding High-Content Screening Assay (CBA). Conditions: PE-labeled PD-L1-Ig 20 nM final, Jurkat-hPD-1 cells; read-out: Jurkat HPD1 PDL1 IC50. In a few lines:
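Compound is added first to the PD-1-expressing Jurkat cells and held 2 h at 37 °C in serum-containing DMEM. The fluorescent PD-L1 fusion follows at 20 nM final for 1 h. Fixed, Hoechst-stained cells are then imaged for bound label.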
Broadly, the IC50 is the concentration needed to halve the response being measured. Turning to `Cc1cccc(C[C@@H]2NC(=O)[C@H](CC(=O)O)NC(=O)[C@H](Cc3ccc(OCC(=O)O)cc3)NC(=O)[C@H](CCN)NC(=O)CSC[C@@H](C(=O)N[C@@H](CCN)C(=O)NCCOCCOCC(=O)NCCOCCOCC(=O)NCCCCCCCCCCC(=O)O)NC(=O)[C@H](CCC(=O)O)NC(=O)[C@H](C(C)(C)O)NC(=O)[C@H](CC3CCCCC3)NC(=O)[C@H](CCN)NC(=O)[C@@H](CC(C)C)NC(=O)[C@H](C)N(C)C(=O)[C@H](Cc3ccc(C(=O)O)cc3)NC(=O)[C@H](Cc3ccc(-c4ccccc4)cc3)NC(=O)[C@H](Cc3ccc(C(=O)O)cc3)NC2=O)c1` [Example 2518] ({CH2CO}-[Dab]Y(Carboxymethyl)D[Phe(3-Me)][Phe(4-COOH)][Bip][Phe(4-COOH)][NMeA][dL][Dab][Cha][Val(3-OH)]EC[Dab][AEEA][AEEA][Aun]-OH; thioether N-14), the 50% inhibitory concentration (IC50) stood at 14.3 nM.
Regarding `Cc1cccc(C[C@@H]2NC(=O)[C@H](CC(=O)O)NC(=O)[C@H](Cc3ccc(C(=O)O)cc3)NC(=O)[C@H](CCN)NC(=O)CSC[C@@H](C(=O)N[C@@H](CCN)C(=O)NCCOCCOCC(=O)NCCOCCOCC(=O)NCCCCCCCCCCC(=O)O)NC(=O)[C@H](CCC(=O)O)NC(=O)[C@H](C(C)(C)O)NC(=O)[C@H](CC3CCCCC3)NC(=O)[C@H](CCN)NC(=O)[C@@H](CC(C)C)NC(=O)[C@H](C)N(C)C(=O)[C@H](Cc3ccc(C(=O)O)cc3)NC(=O)[C@H](Cc3ccc(-c4ccccc4)cc3)NC(=O)[C@H](Cc3ccc(C(=O)O)cc3)NC2=O)c1` [Example 2519] ({CH2CO}-[Dab][Phe(4-COOH)]D[Phe(3-Me)][Phe(4-COOH)][Bip][Phe(4-COOH)][NMeA][dL][Dab][Cha][Val(3-OH)]EC[Dab][AEEA][AEEA][Aun]-OH; thioether N-14), the 50% inhibitory concentration (IC50) is 13.1 nM.
The figure for `Cc1cccc(C[C@@H]2NC(=O)[C@H](CC(=O)O)NC(=O)[C@H](Cc3ccc(OCC(=O)O)cc3)NC(=O)[C@H](CCN)NC(=O)CSC[C@@H](C(=O)N[C@@H](CCN)C(=O)NCCOCCOCC(=O)NCCOCCOCC(=O)NCCCCCCCCCCC(=O)O)NC(=O)[C@H](Cc3cnc[nH]3)NC(=O)[C@H](C(C)(C)O)NC(=O)[C@H](CC3CCCCC3)NC(=O)[C@H](CCN)NC(=O)[C@@H](CC(C)C)NC(=O)[C@H](C)N(C)C(=O)[C@H](Cc3ccc(OCC(=O)O)cc3)NC(=O)[C@H](Cc3ccc(-c4ccccc4)cc3)NC(=O)[C@H](Cc3ccc(OCC(=O)O)cc3)NC2=O)c1` [Example 2520] ({CH2CO}-[Dab]Y(Carboxymethyl)D[Phe(3-Me)]Y(Carboxymethyl)[Bip]Y(Carboxymethyl)[NMeA][dL][Dab][Cha][Val(3-OH)]HC[Dab][AEEA][AEEA][Aun]-OH; thioether N-14) is 8 nM; for `Cc1cccc(C[C@@H]2NC(=O)[C@H](CC(=O)O)NC(=O)[C@H](Cc3ccc(C(=O)O)cc3)NC(=O)[C@H](CCN)NC(=O)CSC[C@@H](C(=O)N[C@@H](CCN)C(=O)NCCOCCOCC(=O)NCCOCCOCC(=O)NCCCCCCCCCCC(=O)O)NC(=O)[C@H](CCC(=O)O)NC(=O)[C@H](C(C)C)NC(=O)[C@H](CC3CCCCC3)NC(=O)[C@H](CCN)NC(=O)[C@@H](CC(C)C)NC(=O)[C@H](C)N(C)C(=O)[C@H](Cc3ccc(C(=O)O)cc3)NC(=O)[C@H](Cc3ccc(-c4ccccc4)cc3)NC(=O)[C@H](Cc3ccc(C(=O)O)cc3)NC2=O)c1` [Example 2521] ({CH2CO}-[Dab][Phe(4-COOH)]D[Phe(3-Me)][Phe(4-COOH)][Bip][Phe(4-COOH)][NMeA][dL][Dab][Cha]VEC[Dab][AEEA][AEEA][Aun]-OH; thioether N-14) it is 13.4 nM; for `CCC(C)[C@@H]1NC(=O)[C@H](Cc2ccc(-c3ccccc3)cc2)NC(=O)[C@H](C(C)C)NC(=O)[C@H](Cc2c[nH]c3ccccc23)NC(=O)[C@H](CC(=O)O)NC(=O)[C@H](Cc2ccc(C(=O)O)cc2)NC(=O)[C@H](Cc2ccc(OCC(=O)O)cc2)NC(=O)CSC[C@@H](C(=O)N[C@@H](CCN)C(=O)NCCOCCOCC(=O)NCCCCCCCCCCC(=O)O)NC(=O)[C@H](C(C)O)NC(=O)[C@H](C(C)(C)O)NC(=O)[C@H](CC2CCCCC2)NC(=O)[C@H](Cc2cnc[nH]2)NC(=O)[C@@H](CC(C)C)NC(=O)[C@H](C)N(C)C1=O` (stereo partly drawn) [Example 2522] ({CH2CO}-Y(Carboxymethyl)[Phe(4-COOH)]DWV[Bip][Ile(3ξ)][NMeA][dL]H[Cha][Val(3-OH)][Thr(3ξ)]C[Dab][AEEA][Aun]-OH; thioether N-14) it is 25.7 nM.
The value for `CCC(C)[C@@H]1NC(=O)[C@H](Cc2ccc(-c3ccccc3)cc2)NC(=O)[C@H](C(C)C)NC(=O)[C@H](Cc2c[nH]c3ccccc23)NC(=O)[C@H](CC(=O)O)NC(=O)[C@H](Cc2ccc(C(=O)O)cc2)NC(=O)[C@H](Cc2ccc(OCC(=O)O)cc2)NC(=O)CSC[C@@H](C(=O)N[C@@H](CCN)C(=O)NCCOCCOCC(=O)NCCCCCCCCCCC(=O)O)NC(=O)[C@H](CCCNC(N)=O)NC(=O)[C@H](C(C)(C)O)NC(=O)[C@H](CC2CCCCC2)NC(=O)[C@H](Cc2cnc[nH]2)NC(=O)[C@@H](CC(C)C)NC(=O)[C@H](C)N(C)C1=O` (stereo partly drawn) [Example 2523] ({CH2CO}-Y(Carboxymethyl)[Phe(4-COOH)]DWV[Bip][Ile(3ξ)][NMeA][dL]H[Cha][Val(3-OH)][Cit]C[Dab][AEEA][Aun]-OH; thioether N-14) was 7.1 nM.
The value for `Cc1cccc(C[C@@H]2NC(=O)[C@H](CC(=O)O)NC(=O)[C@H](Cc3ccc(C#N)cc3)NC(=O)[C@H](C(C)O)NC(=O)CSC[C@@H](C(=O)N[C@@H](CCN)C(=O)NCCOCCOCC(=O)NCCOCCOCC(=O)NCCCCCCCCCCC(=O)O)NC(=O)[C@H](Cc3cnc[nH]3)NC(=O)[C@H](C(C)O)NC(=O)[C@H](CC3CCCCC3)NC(=O)[C@H](CCN)NC(=O)[C@@H](CC(C)C)NC(=O)[C@H](C)N(C)C(=O)[C@H](Cc3ccc(OCC(=O)O)cc3)NC(=O)[C@H](Cc3ccc(-c4ccccc4)cc3)NC(=O)[C@H](Cc3ccc(OCC(=O)O)cc3)NC2=O)c1` (stereo partly drawn) [Example 2525] ({CH2CO}-[Thr(3ξ)][Phe(4-CN)]D[Phe(3-Me)]Y(Carboxymethyl)[Bip]Y(Carboxymethyl)[NMeA][dL][Dab][Cha][Thr(3ξ)]HC[Dab][AEEA][AEEA][Aun]-OH; thioether N-14) was 7.9 nM; that for `Cc1cccc(C[C@@H]2NC(=O)[C@H](CC(=O)O)NC(=O)[C@H](Cc3ccc(C#N)cc3)NC(=O)[C@H](C(C)O)NC(=O)CSC[C@@H](C(=O)N[C@@H](CCN)C(=O)NCCOCCOCC(=O)NCCOCCOCC(=O)NCCCCCCCCCCC(=O)O)NC(=O)[C@H](CCC(=O)O)NC(=O)[C@H](C(C)C)NC(=O)[C@H](CC3CCCCC3)NC(=O)[C@H](CCN)NC(=O)[C@@H](CC(C)C)NC(=O)[C@H](C)N(C)C(=O)[C@H](Cc3ccc(OCC(=O)O)cc3)NC(=O)[C@H](Cc3ccc(-c4ccccc4)cc3)NC(=O)[C@H](Cc3cccc(F)c3)NC2=O)c1` (stereo partly drawn) [Example 2526] ({CH2CO}-[Thr(3ξ)][Phe(4-CN)]D[Phe(3-Me)][Phe(3-F)][Bip]Y(Carboxymethyl)[NMeA][dL][Dab][Cha]VEC[Dab][AEEA][AEEA][Aun]-OH; thioether N-14) was 16.9 nM; that for `Cc1cccc(C[C@@H]2NC(=O)[C@H](CC(=O)O)NC(=O)[C@H](Cc3ccc(C(=O)O)cc3)NC(=O)[C@H](C(C)O)NC(=O)CSC[C@@H](C(=O)N[C@@H](CCN)C(=O)NCCOCCOCC(=O)NCCOCCOCC(=O)NCCCCCCCCCCC(=O)O)NC(=O)[C@H](CO)NC(=O)[C@H](C(C)(C)O)NC(=O)[C@H](CC3CCCCC3)NC(=O)[C@H](CCN)NC(=O)[C@@H](CC(C)C)NC(=O)[C@H](C)N(C)C(=O)[C@H](Cc3ccc(C(=O)O)cc3)NC(=O)[C@H](Cc3ccc(-c4ccccc4)cc3)NC(=O)[C@H](Cc3ccc(C(=O)O)cc3)NC2=O)c1` (stereo partly drawn) [Example 2527] ({CH2CO}-[Thr(3ξ)][Phe(4-COOH)]D[Phe(3-Me)][Phe(4-COOH)][Bip][Phe(4-COOH)][NMeA][dL][Dab][Cha][Val(3-OH)]SC[Dab][AEEA][AEEA][Aun]-OH; thioether N-14) was 1.8 nM.
Consider `Cc1cccc(C[C@@H]2NC(=O)[C@H](CC(=O)O)NC(=O)[C@H](Cc3ccc(C(=O)O)cc3)NC(=O)[C@H](C(C)O)NC(=O)CSC[C@@H](C(=O)N[C@@H](CCN)C(=O)NCCOCCOCC(=O)NCCOCCOCC(=O)NCCCCCCCCCCC(=O)O)NC(=O)[C@H](CCC(=O)O)NC(=O)[C@H](C(C)O)NC(=O)[C@H](CC3CCCCC3)NC(=O)[C@H](CCN)NC(=O)[C@@H](CC(C)C)NC(=O)[C@H](C)N(C)C(=O)[C@H](Cc3ccc(C(=O)O)cc3)NC(=O)[C@H](Cc3ccc(-c4ccccc4)cc3)NC(=O)[C@H](Cc3ccc(C(=O)O)cc3)NC2=O)c1` (stereo partly drawn) [Example 2528] ({CH2CO}-[Thr(3ξ)][Phe(4-COOH)]D[Phe(3-Me)][Phe(4-COOH)][Bip][Phe(4-COOH)][NMeA][dL][Dab][Cha][Thr(3ξ)]EC[Dab][AEEA][AEEA][Aun]-OH; thioether N-14), for which the IC50 was found to be 8.6 nM.
The value for `CCC(C)[C@@H]1NC(=O)[C@H](Cc2ccc(-c3ccccc3)cc2)NC(=O)[C@H](C(C)C)NC(=O)[C@H](Cc2c[nH]c3ccccc23)NC(=O)[C@H](CC(=O)O)NC(=O)[C@H](Cc2ccc(C(=O)O)cc2)NC(=O)[C@H](Cc2cnc[nH]2)NC(=O)CSC[C@@H](C(=O)N[C@@H](CCN)C(=O)NCCOCCOCC(=O)NCCOCCOCC(=O)NCCCCCCCCCCC(=O)O)NC(=O)[C@H](C(C)O)NC(=O)[C@H](C(C)O)NC(=O)[C@H](CC2CCCCC2)NC(=O)[C@H](CCN)NC(=O)[C@@H](CC(C)C)NC(=O)[C@H](C)N(C)C1=O` (stereo partly drawn) [Example 2529] ({CH2CO}-H[Phe(4-COOH)]DWV[Bip][Ile(3ξ)][NMeA][dL][Dab][Cha][Thr(3ξ)][Thr(3ξ)]C[Dab][AEEA][AEEA][Aun]-OH; thioether N-14) was 4.4 nM.

The values are drawn from patent publication US20260070945A1, “MACROCYCLIC IMMUNOMODULATORS” (Bristol-Myers Squibb Company, priority 2022, published 2026).
